This is an account of results in patent publication US20240043373A1, “COMPOSITIONS AND METHODS FOR TREATING AMYLOID-RELATED CONDITIONS” (The Regents of the University of California, priority 2020, published 2024).

“Also recorded” adds a separate entry of the source. Some results are limits rather than exact numbers.

For assay [1], the system named is BAP31. Nature of the assay: BAP31 immunoblot (WB) in SH-SY5Y cells. The format is cell-based, human. As to conditions: SH-SY5Y after treatment. In general terms: In western blotting, separated proteins are transferred to a membrane and probed.
Another assay deals with RTN3 monomer. In words: RTN3 monomer immunoblot (WB) in SH-SY5Y cells.
For assay [2], the system named is sAPPα. Nature of the assay: sAPPα AlphaLISA in SH-SY5Y cells. The format is cell-based, human. As to conditions: for sAPPα in SH-SY5Y cells: SH-SY5Y 150 K/well, 1, 5, 10 and 50 μM, 24 hours, AlphaLISA; for sAPPα levels after 24 h: SH-SY5Y, after 24 h (FIG. 12B). As for the experimental part: Media (20 μL) was collected every 2 h for 24 h (plate was shaken prior to media collection to disburse sAPPα) from each treatment group.

Assay [3] has as its system BAP31. In words: Quantitative global proteomics (LC-MS/MS) of treated SH-SY5Y cells. The format is cell-based, human. Particulars: treated vs vehicle (DMSO) SH-SY5Y cells.
Procedure: Tryptic peptides were subsequently labeled with isobaric tandem mass tags (ThermoFischer Scientific) to provide relative quantitation between samples, and then fractionated using high pH reverse-phase chromatography for increased proteome coverage. The multiplexed samples were analyzed by liquid chromatography tandem mass spectrometry (LC-MS/MS).
The test system of assay [4] is sAPPα. Nature of the assay: Primary HTS: sAPPα AlphaLISA in CHO-7W cells. The class given is cell-based, Chinese Hamster. (In general: In Alpha technology, singlet oxygen from a donor bead excites a nearby acceptor bead.)
Procedure: A HTS of portions of the UCLA compound library was undertaken. The primary HTS was carried out at the MSSR facility at UCLA using CHO-7W cells. An initial screen of approximately 7000 compounds was performed using the NIH and NPW libraries, 3 plates from the targeted libraries (TAR), full LOPAC and NKIL libraries, and four plates from the Emerald/Synergy (ES) library. CHO-7W cells (5 K/well) were treated with 5 μM compounds for 48 h followed by collection of media and determination of sAPPα using an AlphaLISA.
The test system of assay [5] is p-GSK3β (Ser 9). As to conditions: Deng et al., 2015; used at 25 nM as positive control; cited from earlier work.
Assay [6] has as its system p-GSK3β (Ser 9). In words: phospho GSK3β / total GSK3β western blot in SH-SY5Y cells. The class given is cell-based, human. Particulars: SH-SY5Y 100 k/well, 5 uM. The source says:
FIG. 14B is a graph showing each blot normalized to actin levels.
FIG. 16C is a graph decpiting the normalized to actin levels and the ratio of (phosphor-GSK3β/Actin) to (Total-GSK3β/Actin) from the Western blots in FIGS. 16A & B, calculated by densitometry.

In the next assay the test system is RTN3. In words: Oral treatment of ApoE4:5xFAD mice, brain RTN3. The format is in vivo. Particulars: E4:FAD mice, orally 4 mg/kg for 18 days.
The subject of assay [7] is sAPPα. In words: Oral treatment of ApoE4:5xFAD mice, brain sAPPα. The format is in vivo. As to conditions: E4:FAD mice, orally 4 mg/kg for 18 days.
The test system of another assay is p-GSK3β. In words: Oral treatment of ApoE4:5xFAD mice, brain p-GSK3β. The format is in vivo. As to conditions: E4:FAD mice, orally 4 mg/kg for 18 days.

As for `CC(Cc1ccccc1)(NC(=O)CN)c1ccccc1` (centres unmarked) [DDL-401, Remacemide], the “BAP31 by WB” value in the assay on BAP31 [1] was “no significant increase”. In addition, the “concentration giving a modest increase in RTN3 monomer levels” value in the assay on RTN3 monomer (SH-SY5Y, WB) was not below 10 µM. For the same compound, in the assay with sAPPα [2], the “sAPPα in SH-SY5Y cells” value is “significantly (p>0.01) increased; also recorded: increased sAPPα” and the “sAPPα levels after 24 h” value was “significantly increased”. Further, the “sAPPα in SH-SY5Y cells” value in the assay with sAPPα [2] (listed as Remacemide) is recorded as “sAPPα increase”. For the same compound, the “time course of sAPPα in media” value in the assay on sAPPα [2] (SH-SY5Y 400,000/well, 5 μM, media collected every 2 h for 24 h, vs DMSO) is “time dependent increase in sAPPα”. Besides, the “levels of tryptic peptides corresponding to BAP31 (MS/MS)” value in the assay on BAP31 [3] was “increase in the levels of tryptic peptides”. In addition, the “enhancement of sAPPα in CHO-7W cells” value in the assay with sAPPα [4] (CHO cells stably expressing human APP, initial HTS) is “enhancer of sAPPα”. Moreover, the “percent increase in sAPPα levels normalized to control in HTS” value with sAPPα [4] (CHO-7W cells 5 K/well, 5 μM compound, 48 h, AlphaLISA) was more than 25%.

Regarding “sAPPα: recombinant sAPPα (25 nM) used as a positive control for GSK3β phosphorylation”, the “phosphorylation of GSK3β (positive control, literature)” value in the assay on p-GSK3β (Ser 9) [5] was “increase the phosphorylation of GSK3β”.

Consider `COc1cc(C(=O)OCCCN2CCCN(CCCOC(=O)c3cc(OC)c(OC)c(OC)c3)CC2)cc(OC)c1OC` (racemic) [DDL-402, Dilazep], for which, in the assay on sAPPα [2], the “sAPPα levels after 24 h” value was “significantly increased”. Also, the “ratio (phospho-GSK3β/Actin) to (Total-GSK3β/Actin)” value in the assay on p-GSK3β (Ser 9) [6] (18 h) is reported as “trend to increase in p-GSK3β”.

Regarding `CN1[C@@H]2CC[C@H]1C[C@@H](OC(=O)c1c[nH]c3ccccc13)C2` [F03, Tropisetron], the “level of RTN3 monomer (~25 kD)” value with RTN3 monomer (SH-SY5Y 100 k/well, 5 uM, 12 h, vs DMSO or untreated) is “trended to increase”. Moreover, the “RTN3 levels in the brain” value in the assay with RTN3 is listed as “slightly enhanced”. Also, the sAPPα in brain result in the assay on sAPPα [7] is “slight increase”. In addition, the p-GSK3β in brain result in the assay with p-GSK3β was “bigger increase”. In addition, the “phosphorylation of GSK3β” value in the assay on p-GSK3β (Ser 9) [6] (12 h or 18 h) is on record as “increases phosphorylation of GSK3β”.
